According to US5807861A, “Amine substituted xanthinyl compounds” (Cell Therapeutics, Inc., priority 1995, dated 1998):

Tests used:
[1] = system: mouse femoral marrow CFU-GM; settings: in vivo
From the text: Mouse spleen conditioned-medium, at a concentration of 2%, was used in this assay. The medium and semi-solid culture mix were procured from Stem Cell Technologies in Vancouver, BC.

human stromal cells [2] = assay: Comparative: PDGF-BB-induced proliferation in human stromal cells; format: cell-based; settings: 50 ng/ml PDGF-BB; drugs added one hour prior (FIG. 23)
Protocol: Human stromal cells were starved in serum-free media for 24 hours and then stimulated with 50 ng/ml PDGF-BB. The drugs were added at various concentrations one hour prior to PDGF stimulation. Tritiated thymidine was added at the time of PDGF stimulation and pulsed for 24 hours. Cells were harvested and cell proliferation measured (FIG. 23). Background counts (i.e., starved cells) were about 10% of control levels.

human stromal cells [3] = assay: PDGF-induced proliferation in human stromal cells; format: cell-based; settings: 50 ng/ml PDGF; compound added one hour prior; various concentrations (FIG. 1)
Protocol: 3506 on PDGF-induced proliferation in human stromal cells. Procedurally, human stromal cells were starved in serum-free media for 24 hours and then stimulated with 50 ng/ml PDGF. Compound no. 3506 was added at various concentrations one hour prior to PDGF stimulation and pulsed for 24 hours. Cells were harvested and cell proliferation measured having background counts (i.e., starved cells) at about 10% of control levels.

thymocytes = assay: thymocyte proliferation co-stimulated with Con A and IL-2; format: cell-based, mouse (Balb/C); settings: co-stimulated with Con A and IL-2, various concentrations
Protocol: 3506, 3556, 3563, 3576, 3581, 3582 and 3584 on thymocyte proliferation and activation, co-stimulated with Concanavalin A (Con A) and interleukin-2 (IL-2), at various concentrations of the compounds (IC50). Con A and IL-2 together stimulate T cell proliferation and differentiation.
Thymuses, obtained from normal, female Balb/C mice, were dissociated and plated into 96-well plates at a density of 2×10^5 cells/well. Con A ([…]) and IL-2 (15 U/ml) were added to the wells. The cells were incubated for 4 days at 37° C. On day 4, the cells were pulsed with tritiated thymidine and incubated for an additional 4 hours. Incorporated tritiated thymidine of harvested cells was determined in a liquid scintillation counter. Results plotted as dose concentration versus proliferation for inventive compounds nos. 3506, 3556, 3563, 3576, 3581, 3582 and 3584 are shown in FIGS. 6 (3506), 7 (3556), 8 (3563), 9 (3576), 10 (3581 and 3582) and 11 (3584). Respective concentrations of inventive compound (shown in the figures) were added two hours prior to Con A and IL-2 activation. Background counts were less than 200 cpm.

[4] = system: mouse bone marrow cells (CFU-GM); assay: CFU-GM colony assay, effect on normal mouse bone marrow cells; format: cell-based; settings: for cytotoxicity to normal mouse marrow cells: 8 h incubation, 7 days colony growth; for effect on normal cells compared to known chemotherapeutic compounds: in vitro, vs vinblastine, 5-fluorouracil, doxorubicin or cisplatinum
From the text: This example illustrates a method for examining an effect of the inventive compounds, showing potential as cancer therapies, on normal cells. This assay has been used clinically to evaluate recovery of patients' marrow following chemotherapy or radiation. In this specific example, inventive compounds nos.
Mouse bone marrow cells are useful in this assay because they produce colonies, which can later be counted, in culture. The colonies are called colony forming unit-granulocyte macrophage (CFU-GM) and depend on a source of colony stimulating factor for growth.
Cells were cultured with inventive compounds nos. 3563, 3576, 3581, 3584 and 4500, to comparatively evaluate an effect on normal cells of inventive compounds identified as potential cancer therapies. Procedurally, cells were incubated for 8 hours with various concentrations of these compounds. A negative control without any compound was simultaneously prepared. After 8 hours, the incubated cells were washed thoroughly and a consistent number were subsequently plated to obtain CFU-GM. Colonies were permitted to grow for 7 days at 37° C., in 5% CO2. After 7 days of growth, colony growths were counted microscopically. Data obtained in this assay for inventive compounds nos. 3563, 3576, 3581, 3584 and 4500 are plotted in FIGS. 12, 13, 14, 15 and 16, respectively. The data in the figures are shown to compare the colonies counted for cells incubated with varying concentrations of the compounds tested against the negative control, without compound. At concentrations ranging from 5 to 30 μM, more colonies existed for cells incubated with the inventive potential cancer compound than with known, chemotherapeutic agents. Compound no.

[5] = system: polymorphonuclear leukocytes; settings: U.S. Pat. No. 4,636,507; cited from earlier work
certain cytokines = settings: U.S. Pat. Nos. 4,965,271 and 5,096,906; cited from earlier work
[6] = system: tumor necrosis factor (TNF); settings: PTX recipients; cited from earlier work
PAPH = settings: specific activation pathway that does not involve PI; cited from earlier work
Balb/3T3 cells = assay: Balb/3T3 viability (cytotoxicity) assay with BCECF; format: cell-based; settings: BCECF fluorescence; concentrations shown in FIGS. 1, 2 and 4; control value of 100%
Protocol: In conjunction with the Balb/3T3 proliferation assay, a related viability assay was conducted to assess the cytotoxicity of compounds which inhibit proliferation in this system. The assay protocol was identical to that performed above except that tritiated thymidine was not added after the 24 hour incubation with PDGF. In this cytotoxicity assay, after incubating the cells, a 10 μM solution of BCECF was added and the cells were incubated for 30 minutes at 37° C. Following this incubation, BCECF was replaced with PBS and the plate read for fluorescence in a Millipore cytofluorometer. Data obtained was plotted as a percent of control versus concentration of inventive compound tested. FIGS. 3 and 5 represent the results of this viability assay, for compounds nos. 3556 and 4500, respectively.

293-EBNA cells = assay: 293-EBNA cell viability (alamarBlue); format: cell-based
Protocol: The effect of respective inventive compounds on the viability of 293-EBNA cells was measured by a colorimetric assay that uses the alamarBlue® dye (purchased from Alamar Biosciences, Inc.) to report cell proliferation, viability and cytotoxicity. This dye is an oxidation-reduction (Redox) indicator that changes color in response to chemical reduction of growth medium resulting from cell growth. The general procedure involves adding alamar-Blue® in an amount equal to 10% of the culture volume, returning the culture to incubator for four hours, and measuring the absorbance at 570 nm after subtraction of background absorbance at 600 nm.

JR-CSF strain of HIV-1 = assay: JR-CSF HIV-1 infection of human peripheral blood lymphocytes (p24 antigen ELISA); format: cell-based, HIV-1 (in human PBL); settings: 10 and 20 μM
Protocol: In a protocol for infecting a PBL cell suspension, JR-CSF HIV-1 was clarified at low-speed centrifugation (2,000-3,000 rpm) or filtration and stored in aliquots at -70° C. To maintain consistent titers, HIV-1 aliquots were not subjected to repeated freezing and thawing and any remainder was discarded. Virus aliquots were thawed at room temperature or under cold running water for more rapid thawing and maintained in ice after thawing. Just prior to infection of PBL cells, the supernatant or dilution were warmed to room temperature.
Human PBL cells taken from a suitable donor were centrifuged down at 1000 rpm for 5-10 minutes at room temperature. While cells were spinning, the virus inoculum was prepared in medium by adding 10 μg/ml Polybrene®. The centrifuged cells were resuspended in virus inoculum, using 1 ml of virus inoculum per 10^7 cells. A more efficient HIV-1 infection is obtained with smaller amounts of inoculum. The cells were incubated at 37° C. in the presence of virus inoculum for 2 hours, shaking the suspension every half hour. After 2 hours, the suspension was spun down, the virus inoculum removed and the cells were washed with 10 ml of fresh media.
The infected cells, inoculated with virus at a concentration of 10 ng virus/10^6 PBL, were washed and resuspended in growth medium ([…] RPMI/20 % FBS/10 units/ml IL-2). […]

Structure (SMILES): O=c1[nH]cc(F)c(=O)[nH]1 [5-fluorouracil]
- CFU-GM detectable in mouse femoral marrow [1]: no CFU-GM were detectable

Structure (SMILES): CC(=O)CCCCCCn1c(=O)c2c(ncn2C)n(C)c1=O [A, 1-(7-oxooctyl)-3,7-dimethylxanthine]
- concentrations at which activity on PDGF-induced proliferation is apparent (human stromal cells [2]): millimolar concentrations

Structure (SMILES): CC(CCCCn1c(=O)c2c(ncn2C)n(C)c1=O)N(C)C (centres unmarked) [B, 1-(5-dimethylaminohexyl)-3,7-dimethylxanthine]
- concentrations at which activity on PDGF-induced proliferation is apparent (human stromal cells [2]): millimolar concentrations

Structure (SMILES): CCCCCCCCCCCNCCCCCCn1c(=O)c2c(ncn2C)n(C)c1=O [Compound no. 3506]
- inhibition of PDGF-induced proliferation (human stromal cells [3]): inhibition of PDGF-induced proliferation
- effect on thymocyte proliferation and activation (thymocytes): inhibitive effect

Structure (SMILES): CCCCCCCCCCCCNCCCCCCCCCCCn1c(=O)c2c(ncn2C)n(C)c1=O [Compound no. 3563]
- effect on thymocyte proliferation and activation (thymocytes): inhibitive effect
- cytotoxicity to normal mouse marrow cells [4]: most cytotoxic to proliferative potential of the mouse marrow cells
- effect on normal cells compared to known chemotherapeutic compounds [4]: less deleterious to normal cells

Structure (SMILES): CC(O)CCCCn1c(=O)c2c(ncn2C)n(C)c1=O (centres unmarked) [M1, 1-(5-hydroxyhexyl)-3,7-dimethylxanthine]
- chemotaxis in polymorphonuclear leukocytes responding to chemotaxis stimulation [5]: enhance chemotaxis

Structure (SMILES): CC(=O)CCCCn1c(=O)c2c(ncn2C)n(C)c1=O [PTX, 1-(5-oxohexyl)-3,7-dimethylxanthine]
- chemotaxis in polymorphonuclear leukocytes responding to chemotaxis stimulation [5]: enhance chemotaxis
- effect on activity of certain cytokines to affect chemotaxis (certain cytokines): inhibit activity of certain cytokines
- TNF levels in normal volunteers [6]: TNF levels were higher
- effect on PAPH (PAPH): blocks PAPH

Structure (SMILES): CCCCCCCCNCCCCCCCCCCCn1c(=O)c2c(ncn2C)n(C)c1=O [compound 3556, 1-(11-octylaminoundecyl)-3,7-dimethylxanthine]
- cytotoxicity at the concentrations that inhibit proliferation (Balb/3T3 cells): not cytotoxic to any cells
- effect on thymocyte proliferation and activation (thymocytes): inhibitive effect
- concentration at which cytotoxicity becomes significant (293-EBNA cells): > 10 µM
- effect on HIV-1 viral infection (JR-CSF strain of HIV-1): virtually eliminated viral infection

Structure (SMILES): CCCCCCCCCCCCN(C)CCCCCCCCCCCn1c(=O)c2c(ncn2C)n(C)c1=O [compound 3576]
- effect on thymocyte proliferation and activation (thymocytes): inhibitive effect
- effect on normal cells compared to known chemotherapeutic compounds [4]: less deleterious to normal cells

Structure (SMILES): CCCCCCCCCCNCCCCCCCCCCCn1c(=O)c2c(ncn2C)n(C)c1=O [compound 3581]
- effect on thymocyte proliferation and activation (thymocytes): inhibitive effect
- effect on normal cells compared to known chemotherapeutic compounds [4]: less deleterious to normal cells

Structure (SMILES): CCCCCCCCCCCCCCNCCCCCCCCCCCn1c(=O)c2c(ncn2C)n(C)c1=O [compound 3582]
- effect on thymocyte proliferation and activation (thymocytes): inhibitive effect

Structure (SMILES): CCCCCCCCCCCCCCCCNCCCCCCCCCCCn1c(=O)c2c(ncn2C)n(C)c1=O [compound 3584]
- effect on thymocyte proliferation and activation (thymocytes): inhibitive effect
- effect on normal cells compared to known chemotherapeutic compounds [4]: less deleterious to normal cells

Structure (SMILES): CCCCCCN(CCCCCC)CCCCCCCCCCCn1c(=O)c2c(ncn2C)n(C)c1=O [compound 3590]
- concentration at which there is still little cytotoxicity (293-EBNA cells): > 32 µM

Structure (SMILES): COc1cc(CNCCCCCCCCCCCn2c(=O)c3c(ncn3C)n(C)c2=O)cc(OC)c1OC [compound 3593]
- concentration at which there is still little cytotoxicity (293-EBNA cells): > 32 µM

Structure (SMILES): CCCCCCN(C)CCCCCCCCCCCn1c(=O)c2c(ncn2C)n(C)c1=O [compound 4500]
- cytotoxicity at the concentrations that inhibit proliferation (Balb/3T3 cells): not cytotoxic to any cells
- cytotoxicity to normal mouse marrow cells [4]: virtually no toxicity at elevated concentrations for the normal mouse marrow cells
- concentration at which there is still little cytotoxicity (293-EBNA cells): > 32 µM
